# Measurements: patent US20070259966A1, “Coadministration of Radiation, Efaproxiral Sodium, and Supplemental Oxygen for the Treatment of Cancer” (ALLOS THERAPEUTICS, INC., priority 2004, published 2007)
# Experiments:
# hemoglobin = biological target: T1, hemoglobin (Homo sapiens, UniProt P68871+P69905); assay: Predicted p50 shift from RBC concentration; type: in vivo; conditions: at RBC concentration >483 μg/ml
# T1 construct: endogenous in cells; host or cells: red blood cells of treated patients (in vivo)
# T1 sequence (P69905 2-142 limits assumed): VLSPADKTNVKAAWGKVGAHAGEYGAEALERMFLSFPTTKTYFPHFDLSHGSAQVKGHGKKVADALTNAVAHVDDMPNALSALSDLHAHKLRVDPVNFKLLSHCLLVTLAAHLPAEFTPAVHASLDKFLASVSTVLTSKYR
# T1 sequence (P68871 2-147 limits assumed): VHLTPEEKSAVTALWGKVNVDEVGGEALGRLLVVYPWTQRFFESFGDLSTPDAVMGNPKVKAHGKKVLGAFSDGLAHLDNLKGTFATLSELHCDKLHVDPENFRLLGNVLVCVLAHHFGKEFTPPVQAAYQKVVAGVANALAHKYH
# Method: Sometimes, efaproxiral sodium is represented by the name 2-[4-[2-[(3,5-dimethylphenyl)amino]-2-oxoethyl]phenoxy]-2-methylpropanoic acid. In general efaproxiral sodium is administered as a physiologically acceptable salt, such as the monosodium salt; that is, X+ is Na+. Efaproxiral sodium induces allosteric modification of hemoglobin, such that its binding affinity for oxygen is decreased, resulting in increased oxygen distribution to tissues by erythrocytes.
# (§1) Plasma and red blood cell (RBC) drug concentration were assayed on 2 days during the course of efaproxiral sodium administration: WBRT day 1 (end-infusion) and on 1 single day between WBRT days 6 and 10 (pre-infusion and end-infusion assays). Regression analysis was used to explore the relationship between trough and peak concentrations and continuous clinical covariates (eg, age, serum albumin, hematocrit, serum creatinine, etc). […] A dose of efaproxiral sodium was considered predicatably therapeutic if it achieved a sufficient RBC concentration (>483 μg/ml), and corresponded to a predicted p50 shift of 10 mmHg.
# [1] = system: patients with brain metastases; assay: Safety / treatment-emergent adverse events in the controlled study; type: in vivo, human
# Method: Depending upon an individual patient's resaturation time (time required to recover to a stable ≧90% SpO2 on room air) following efaproxiral sodium plus WBRT, supplemental oxygen use may be required for as little as 30 minutes to more than 4 hours. […] During this period of decreased oxygen saturation, patients require continuous SpO2 monitoring. If the desired SpO2 of ≧90% while breathing room air is not achieved, supplemental oxygen is to be continued and increased to a flow of 6-8 L/min, if necessary, until the SpO2 while breathing room air is stabilized at ≧90%.
# Patients with brain metastases were administered efaproxiral sodium in a total dose of 0-100 mg/kg per day based on the dosing guidelines detailed above. In general, efaproxiral sodium is administered by intravenous infusion through a central venous access device over 30 minutes at a dose of 75 or 100 mg/kg daily with concurrent supplemental oxygen. Oxygen must be administered at 4 L/min via nasal cannula or facemask beginning 5 minutes prior to initiation of infusion, during infusion and WBRT, and for at least 15 minutes after completion of daily WBRT. Efaproxiral sodium is administered every day of a fractionated course of WBRT. Except when contraindicated, WBRT must be administered within 30 minutes of the end of the efaproxiral sodium infusion.
# The patients were given the drug in one dose. Efaproxiral sodium was administered via central venous access with flow rate controlled by volumetric pump over a 30-45 minute interval with end-infusion no longer than 30 minutes prior to each radiation dose of a 10-day course of WBRT. Efaproxiral sodium was formulated as a sterile solution for injection and was supplied in single-use glass bottles containing 10 g efaproxiral sodium in 500 mL of 0.225% NaCl at a concentration of 20 mg/mL. Efaproxiral sodium was administered during the 10-day course of WBRT, for a maximum of 10 doses. A control group received radiation and supplemental oxygen only.
# The majority of treatment-emergent adverse events were Grade 1 or 2 in severity, resolved spontaneously or within the duration of the study, and responded well to concomitant treatment with antiemetics for nausea/vomiting, nonsteroidal anti-inflammatory drugs for headache, supplemental oxygen for hypoxemia. […] Muscle weakness and dyspnea (reported in 3% of patients) were the most commonly reported Grade 3 adverse events in Control patients and both events were reported as a Grade 4 event in 1 patient each. The most commonly reported Grade 4 adverse event in both treatment and control groups was disease progression (reported in 6% of both groups).
# [2] = system: patients with brain metastases; assay: Quality of life: Spitzer Questionnaire (SQ); type: in vivo, human
# Method: (§2) C. Quality of Life. Quality of life was determined by means of the Spitzer Questionnaire (SQ) and Karnofsky Performance Status (KPS) assessment. The tests were performed at baseline, at WBRT day 10, and at all routine follow-up visits. A sustained drop in the KPS score to less than 60 was defined as a significant drop. The 5 questions comprising the Spitzer Questionnaire were weighted evenly. For each evaluation with at least 3 out of 5 questions answered, an average score was computed for each patient. Questionnaires with fewer than 3 questions answered were treated as missing data. The protocol specified a sustained drop in the Spitzer Questionnaire score of 2 points constituted a significant drop.
# [3] = Plasma and red blood cell (RBC) drug concentration; type: in vivo, human
# Method: as §1
# [4] = system: patients with brain metastases; assay: Quality of life: Karnofsky Performance Status (KPS); type: in vivo, human
# Method: as §2
compound,measurement,setting,value
"Cc1cc(C)cc(NC(=O)Cc2ccc(OC(C)(C)C(=O)O)cc2)c1 [efaproxiral sodium, 2-[4-(((3,5-dimethylanilino)carbonyl)methyl)phenoxy]-2-methylpropionic acid]",predicted p50 shift,hemoglobin,10 mmHg
same,Grade 4 hypoxemia,[1]; in vivo,no Grade 4 hypoxemia was reported
same,severity of the majority of treatment-emergent adverse events,[1]; in vivo,Grade 1 or 2
same,duration of supplemental oxygen required after completion of WBRT,"[1]; majority of doses, patients with brain metastases from breast cancer",one hour or less
same,"Grade 3 hypoxemia, patients reporting",[1]; most commonly reported Grade 3 adverse event,11%
same,"Grade 4 disease progression, patients reporting",[1]; most commonly reported Grade 4 adverse event,6%
same,"patients with stable or improving SQ scores, (%)",[2]; 1 month,(42) %
same,"patients with stable or improving SQ scores, (%)",[2]; 3 months,(23) %
same,"patients with stable or improving SQ scores, (%)",[2]; 6 months,(16) %
same,"patients with stable or improving SQ scores, (%)",[2]; 12 months,(9) %
same,percentage of patients with stable or improving SQ scores over time versus Control,"[2]; χ2=3.4675, p=0.0626",trend toward a higher percentage
same,drug accumulation in RBCs,[3]; WBRT week 2 preinfusion concentrations,No clinically relevant drug accumulation
same,"concentrations in RBCs, higher body weight versus low weight patients",[3]; at a given dose,higher
same,"concentrations in RBCs, breast primary versus NSCLC and other primary patients",[3]; in vivo,higher
same,change of concentrations in RBCs with dose,[3]; patients dosed at 75 or 100 mg/kg,proportional increase
same,"patients with stable or improving KPS scores, (%)",[4]; 1 month,(44) %
same,"patients with stable or improving KPS scores, (%)",[4]; 3 months,(24) %
same,"patients with stable or improving KPS scores, (%)",[4]; 6 months,(18) %
same,"patients with stable or improving KPS scores, (%)",[4]; 12 months,(7) %
same,distribution of KPS score categories between treatment groups,"[4]; breast primary, 6 months and 1 year (p=0.0046 and p=0.0070)",statistically significant difference
same,percentage of patients with stable or improving KPS scores over time versus Control,"[4]; χ2=9.0096, p=0.0027",highly statistically significant
